Source: patent US10081601B2, “Glucocerebrosidase modulators and uses thereof” (Alectos Therapeutics Inc., priority 2013, dated 2018)

Target: GCase enzyme (Cerezyme®, recombinant human GCase) (Homo sapiens, UniProt P04062, R534H)
Settings: read-out: GCase Ki; from IC50 by Cheng-Prusoff equation, GCase Km 7.9 mM, pH 7.0

Sequence of GCase enzyme (Cerezyme®, recombinant human GCase) (P04062 40-536 R534H limits assumed): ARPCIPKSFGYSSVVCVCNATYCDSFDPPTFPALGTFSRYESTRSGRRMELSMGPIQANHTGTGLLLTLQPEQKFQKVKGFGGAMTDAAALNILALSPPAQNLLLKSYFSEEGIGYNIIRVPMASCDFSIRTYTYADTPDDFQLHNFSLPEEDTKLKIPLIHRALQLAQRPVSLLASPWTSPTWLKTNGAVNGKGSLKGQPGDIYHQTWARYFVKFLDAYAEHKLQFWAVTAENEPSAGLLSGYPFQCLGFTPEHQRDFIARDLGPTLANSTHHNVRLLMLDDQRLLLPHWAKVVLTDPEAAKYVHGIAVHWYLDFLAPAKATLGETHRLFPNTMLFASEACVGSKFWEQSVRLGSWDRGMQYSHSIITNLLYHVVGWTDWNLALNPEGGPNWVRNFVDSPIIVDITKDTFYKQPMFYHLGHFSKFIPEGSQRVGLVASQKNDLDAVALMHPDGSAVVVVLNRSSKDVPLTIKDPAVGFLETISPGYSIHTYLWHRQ

| Ki | SMILES |
| --- | --- |
| 2.6 nM | C[C@@H]1[C@@H](O)[C@H](O)CNC12CC2 [Example 1, (6R,7R,8S)-8-methyl-4-azaspiro[2.5]octane-6,7-diol] |
| 8 nM | O[C@H]1[C@H](O)CNC2(CC2)[C@@H]1C(F)F [Example 4, (6R,7R,8S)-8-(difluoromethyl)-4-azaspiro[2.5]octane-6,7-diol] |
